Data published in ChEMBL document CHEMBL4376829, “Discovery and biological evaluation of vinylsulfonamide derivatives as highly potent, covalent TEAD autopalmitoylation inhibitors” (Eur J Med Chem, 2019).
Active and inactive are the calls of the source. The calls are words filed in the database; no cut-off is given here.

How the values were obtained:
[1] = biological target: Rhodopsin kinase GRK7 (Homo sapiens) (UniProt Q8WTQ7); assay: Inhibition of full length recombinant human GRK7 at 10 uM using casein as substrate after 40 mins in presence of [gamma33P]ATP by scintillation counting method relative to control
[2] = biological target: Myosin-IIIb (Homo sapiens) (UniProt Q8WXR4); assay: Inhibition of recombinant full-length human MYO3B (1 to 326 residues) at 10 uM using RLGRDKYKTLRQIRQ as substrate measured after 40 mins in presence of [gamma33P]ATP by scintillation counting method relative to control
Sequence of Myosin-IIIb (Homo sapiens) (Q8WXR4 whole entry, the tested form may be a part): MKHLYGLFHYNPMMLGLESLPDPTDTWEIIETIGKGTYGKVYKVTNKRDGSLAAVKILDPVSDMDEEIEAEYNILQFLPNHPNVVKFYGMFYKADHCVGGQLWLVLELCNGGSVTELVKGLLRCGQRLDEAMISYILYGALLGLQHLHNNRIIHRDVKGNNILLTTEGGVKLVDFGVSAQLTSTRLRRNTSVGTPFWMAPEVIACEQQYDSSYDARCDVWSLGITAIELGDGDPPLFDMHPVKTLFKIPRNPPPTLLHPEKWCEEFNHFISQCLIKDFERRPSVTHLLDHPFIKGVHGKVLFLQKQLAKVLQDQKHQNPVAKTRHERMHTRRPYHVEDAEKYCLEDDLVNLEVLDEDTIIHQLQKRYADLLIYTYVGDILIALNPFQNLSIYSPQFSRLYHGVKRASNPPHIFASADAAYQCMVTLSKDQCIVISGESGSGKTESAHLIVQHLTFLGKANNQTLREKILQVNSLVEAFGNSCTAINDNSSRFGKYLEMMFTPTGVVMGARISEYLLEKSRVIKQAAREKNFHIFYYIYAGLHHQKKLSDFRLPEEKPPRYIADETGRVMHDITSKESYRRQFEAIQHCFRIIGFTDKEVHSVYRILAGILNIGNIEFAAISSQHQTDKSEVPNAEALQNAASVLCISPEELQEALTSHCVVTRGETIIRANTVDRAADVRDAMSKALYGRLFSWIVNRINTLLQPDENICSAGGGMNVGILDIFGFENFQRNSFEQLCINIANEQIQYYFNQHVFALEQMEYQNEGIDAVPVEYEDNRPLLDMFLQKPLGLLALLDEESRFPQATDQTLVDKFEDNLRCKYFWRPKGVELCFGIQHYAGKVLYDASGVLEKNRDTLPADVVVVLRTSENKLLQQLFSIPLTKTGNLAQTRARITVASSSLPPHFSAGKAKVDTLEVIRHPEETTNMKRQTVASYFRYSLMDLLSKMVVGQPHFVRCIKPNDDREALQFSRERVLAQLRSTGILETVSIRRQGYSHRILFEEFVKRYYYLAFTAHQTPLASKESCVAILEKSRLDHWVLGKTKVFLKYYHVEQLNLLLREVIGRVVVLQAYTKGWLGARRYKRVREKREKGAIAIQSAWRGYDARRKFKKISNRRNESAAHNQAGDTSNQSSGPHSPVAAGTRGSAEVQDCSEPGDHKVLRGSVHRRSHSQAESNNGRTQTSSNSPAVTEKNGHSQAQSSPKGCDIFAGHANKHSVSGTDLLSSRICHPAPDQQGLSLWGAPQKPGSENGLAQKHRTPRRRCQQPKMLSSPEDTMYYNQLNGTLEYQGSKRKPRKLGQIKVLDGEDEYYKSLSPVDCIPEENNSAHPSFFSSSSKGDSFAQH

[3] = biological target: T1, Transcriptional enhancer factor TEF-3 (Homo sapiens, UniProt Q15561); assay: Inhibition of N-terminal His6 tagged human TEAD4-YBD (217 to 434 residues) expressed in Escherichia coli C43 (DE3) cells assessed as reduction in autopalmitoylation at 200 nM preincubated for 2 hrs followed by palmitoyl alkyne-coenzyme A addition and measured after 30 mins immunoblot analysis relative to control
T1 sequence (Q15561 whole entry, the tested form may be a part): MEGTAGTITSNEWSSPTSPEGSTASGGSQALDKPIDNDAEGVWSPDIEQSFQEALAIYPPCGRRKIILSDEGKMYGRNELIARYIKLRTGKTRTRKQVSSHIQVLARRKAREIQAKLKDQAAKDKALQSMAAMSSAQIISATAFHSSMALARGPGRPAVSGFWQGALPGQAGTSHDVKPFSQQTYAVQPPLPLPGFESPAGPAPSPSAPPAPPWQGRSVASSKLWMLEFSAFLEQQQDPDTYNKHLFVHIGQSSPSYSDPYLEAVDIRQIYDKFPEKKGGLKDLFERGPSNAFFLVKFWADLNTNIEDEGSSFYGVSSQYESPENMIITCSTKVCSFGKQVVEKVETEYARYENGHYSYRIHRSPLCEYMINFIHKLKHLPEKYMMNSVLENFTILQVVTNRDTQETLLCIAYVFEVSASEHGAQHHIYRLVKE

[4] = biological target: CDK9/cyclin T1 (Homo sapiens) (UniProt O60563+P50750); assay: Inhibition of recombinant full length human CDK9/cyclinT1 at 10 uM using KTFCGTPEYLAPEVRREPRILSEEEQEMFRDFDYIADWC as substrate measured after 40 mins in presence of [gamma33P]ATP by scintillation counting method relative to control; assay type: protein-complex assay
[5] = biological target: Serine/threonine-protein kinase 24 (Homo sapiens) (UniProt Q9Y6E0); assay: Inhibition of recombinant human MST3 (1 to 304 residues) at 10 uM using ERMRPRKRQGSVRRRV as substrate measured after 40 mins in presence of [gamma33P]ATP by scintillation counting method relative to control
[6] = biological target: cGMP-dependent protein kinase 1 (Homo sapiens) (UniProt Q13976); assay: Inhibition of full-length recombinant human PKG1alpha at 10 uM using RRRLSFAEPG as substrate after 40 mins by in presence of [gamma33P]ATP by scintillation counting method relative to control
[7] = tested on: Transcriptional enhancer factor TEF-3 (Homo sapiens), Q15561 [C367A]; assay: Binding affinity to TEAD4-YBD C367A mutant (unknown origin) assessed as change in melting temperature by SYPRO-dye based thermal shift assay
Sequence of Transcriptional enhancer factor TEF-3 (Homo sapiens), Q15561 [C367A] (Q15561 whole entry C367A): as the sequence (Q15561 whole entry, the tested form may be a part) above, with C367A counted along it

[8] = biological target: Rhodopsin kinase GRK1 (Homo sapiens) (UniProt Q15835); assay: Inhibition of full length recombinant human GRK1 at 10 uM using KKKKERLLDDRHDSGLDSMKDEE as substrate after 40 mins in presence of [gamma33P]ATP by scintillation counting method relative to control
[9] = biological target: 3-phosphoinositide-dependent protein kinase 1 (Homo sapiens) (UniProt O15530); assay: Inhibition of recombinant human PDK1 (52 to end residues) at 10 uM using KTFCGTPEYLAPEVRREPRILSEEEQEMFRDFDYIADWC as substrate measured after 40 mins in presence of [gamma33P]ATP by scintillation counting method relative to control
[10] = biological target: MAP kinase-interacting serine/threonine-protein kinase 2 (Homo sapiens) (UniProt Q9HBH9); assay: Inhibition of recombinant full-length human MNK2 at 10 uM using myelin basic protein as substrate measured after 40 mins in presence of [gamma33P]ATP by scintillation counting analysis relative to control
Sequence of MAP kinase-interacting serine/threonine-protein kinase 2 (Homo sapiens) (Q9HBH9 whole entry, looked up): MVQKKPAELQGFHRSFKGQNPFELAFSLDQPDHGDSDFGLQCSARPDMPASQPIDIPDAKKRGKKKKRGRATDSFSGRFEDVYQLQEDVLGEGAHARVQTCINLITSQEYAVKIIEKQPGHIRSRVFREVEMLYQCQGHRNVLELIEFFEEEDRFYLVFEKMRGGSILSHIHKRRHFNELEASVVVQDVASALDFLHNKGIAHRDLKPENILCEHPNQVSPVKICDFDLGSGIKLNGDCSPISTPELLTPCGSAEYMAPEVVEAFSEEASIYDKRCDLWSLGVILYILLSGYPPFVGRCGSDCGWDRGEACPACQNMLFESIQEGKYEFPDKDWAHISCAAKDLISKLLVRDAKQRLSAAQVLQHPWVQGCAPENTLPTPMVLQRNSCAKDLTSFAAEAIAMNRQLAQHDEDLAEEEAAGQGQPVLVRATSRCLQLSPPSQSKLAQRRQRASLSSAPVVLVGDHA

[11] = biological target: Catenin beta-1 (Homo sapiens) (UniProt P35222); assay: Inhibition of beta catenin (unknown origin) expressed in HEK293T cells at 10 to 20 uM by dual-TOPFlash reporter gene assay; assay type: cell-based
Sequence of Catenin beta-1 (Homo sapiens) (P35222 whole entry): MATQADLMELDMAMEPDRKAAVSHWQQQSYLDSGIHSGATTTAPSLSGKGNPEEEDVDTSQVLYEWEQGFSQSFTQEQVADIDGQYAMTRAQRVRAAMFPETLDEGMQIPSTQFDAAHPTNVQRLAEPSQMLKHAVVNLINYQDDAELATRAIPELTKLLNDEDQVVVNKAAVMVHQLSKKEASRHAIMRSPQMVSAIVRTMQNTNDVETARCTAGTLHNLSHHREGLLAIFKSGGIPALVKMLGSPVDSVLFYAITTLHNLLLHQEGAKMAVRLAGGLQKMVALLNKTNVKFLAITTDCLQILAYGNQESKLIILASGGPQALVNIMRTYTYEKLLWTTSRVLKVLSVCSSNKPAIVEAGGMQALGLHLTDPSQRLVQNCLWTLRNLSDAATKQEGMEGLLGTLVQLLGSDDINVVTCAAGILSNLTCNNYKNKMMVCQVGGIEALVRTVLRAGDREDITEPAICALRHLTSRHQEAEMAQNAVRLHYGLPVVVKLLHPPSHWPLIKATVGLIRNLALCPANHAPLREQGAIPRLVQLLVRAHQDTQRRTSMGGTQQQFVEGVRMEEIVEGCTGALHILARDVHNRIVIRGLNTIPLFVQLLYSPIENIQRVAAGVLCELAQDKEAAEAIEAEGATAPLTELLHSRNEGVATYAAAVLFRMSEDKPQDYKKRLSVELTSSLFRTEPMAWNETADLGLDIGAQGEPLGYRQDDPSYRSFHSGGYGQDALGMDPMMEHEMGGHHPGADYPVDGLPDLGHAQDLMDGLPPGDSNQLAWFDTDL

Homo sapiens [12] = species: Homo sapiens; assay: Inhibition of full-length recombinant human PKA at 10 uM using LRRASLG as substrate after 40 mins by in presence of [gamma33P]ATP by scintillation counting method relative to control
[13] = biological target: Serine/threonine-protein kinase STK11 (Homo sapiens) (UniProt Q15831); assay: Inhibition of recombinant full-length human LKB1 at 10 uM using LSNLYHQGKFLQTFCGSPLYRRR as substrate measured after 40 mins in presence of [gamm33P]ATP by scintillation counting method relative to control
Sequence of Serine/threonine-protein kinase STK11 (Homo sapiens) (Q15831 whole entry, the tested form may be a part): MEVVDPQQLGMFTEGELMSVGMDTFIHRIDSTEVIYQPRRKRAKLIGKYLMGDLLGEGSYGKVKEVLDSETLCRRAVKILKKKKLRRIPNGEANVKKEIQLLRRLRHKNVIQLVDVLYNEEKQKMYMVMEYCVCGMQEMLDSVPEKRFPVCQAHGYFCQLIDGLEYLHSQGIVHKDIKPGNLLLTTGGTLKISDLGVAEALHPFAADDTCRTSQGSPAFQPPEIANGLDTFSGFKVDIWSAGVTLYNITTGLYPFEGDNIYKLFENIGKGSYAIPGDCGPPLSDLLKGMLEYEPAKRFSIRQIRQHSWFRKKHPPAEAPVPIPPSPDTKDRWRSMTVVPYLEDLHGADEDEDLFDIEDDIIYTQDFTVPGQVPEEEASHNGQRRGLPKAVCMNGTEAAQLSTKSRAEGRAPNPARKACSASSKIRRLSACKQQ

[14] = biological target: Mitogen-activated protein kinase kinase kinase 7 (Homo sapiens) (UniProt O43318); assay: Inhibition of recombinant human TAK1 (1 to 303 residues) at 10 uM using casein as substrate measured after 40 mins in presence of [gamma33P]ATP by scintillation counting method relative to control
[15] = biological target: Epidermal growth factor receptor (Homo sapiens) (UniProt P00533); assay: Inhibition of recombinant human EGFR (696 to end residues) at 10 uM using poly(Glu, Tyr) as substrate measured after 40 mins in presence of [gamma33P]ATP by scintillation counting method relative to control
[16] = biological target: SRSF protein kinase 1 (Homo sapiens) (UniProt Q96SB4); assay: Inhibition of recombinant human SRPK1 (2 to end residues) at 10 uM using RSRSRSRSRSRSRSR as substrate measured after 40 mins in presence of [gamma33P]ATP by scintillation counting method relative to control
[17] = biological target: T1, Transcriptional enhancer factor TEF-3; assay: Binding affinity to N-terminal His6-tagged human TEAD4-YBD (217 to 434 residues) expressed in Escherichia coli C43 (DE3) cells assessed as change in melting temperature at 1:1 ratio by SYPRO-dye based thermal shift assay
[18] = biological target: Cyclin-dependent kinase 5/CDK5 activator 1 (Homo sapiens) (UniProt Q00535+Q15078); assay: Inhibition of recombinant full-length human CDK5/p25 at 10 uM using histone H1 as substrate measured after 40 mins in presence of [gamma33P]ATP by scintillation counting method relative to control; assay type: protein-complex assay
Homo sapiens [19] = species: Homo sapiens; assay: Inhibition of recombinant human Plk4 S34T mutant (1 to 273 residues) at 10 uM using casein as substrate measured after 120 mins in presence of [gamma33P]ATP by scintillation counting method relative to control
[20] = biological target: Calcium/calmodulin-dependent protein kinase type IV (Homo sapiens) (UniProt Q16566); assay: Inhibition of full-length recombinant human Camk4 at 10 uM using calmodulin as substrate after 40 mins by in presence of [gamma33P]ATP by scintillation counting method relative to control
[21] = tested on: Transcriptional enhancer factor TEF-3 (Homo sapiens), Q15561 [C410A]; assay: Binding affinity to TEAD4-YBD C410A mutant (unknown origin) assessed as change in melting temperature by SYPRO-dye based thermal shift assay
Homo sapiens [22] = species: Homo sapiens; assay: Inhibition of recombinant human EphB2 A848S/K918E mutant (560 to end residues) using poly (Glu, Tyr) 4:1 as substrate at 10 uM after 40 mins in presence of [gamma-33P]-ATP by scintillation counting relative to control
[23] = biological target: Tyrosine-protein kinase Fer (Homo sapiens) (UniProt P16591); assay: Inhibition of recombinant human FER (541 to end residues) at 10 uM using KKKSPGEYVNIEFG as substrate measured after 40 mins in presence of [gamma33P]ATP by scintillation counting method relative to control
Sequence of Tyrosine-protein kinase Fer (Homo sapiens) (P16591 whole entry, looked up): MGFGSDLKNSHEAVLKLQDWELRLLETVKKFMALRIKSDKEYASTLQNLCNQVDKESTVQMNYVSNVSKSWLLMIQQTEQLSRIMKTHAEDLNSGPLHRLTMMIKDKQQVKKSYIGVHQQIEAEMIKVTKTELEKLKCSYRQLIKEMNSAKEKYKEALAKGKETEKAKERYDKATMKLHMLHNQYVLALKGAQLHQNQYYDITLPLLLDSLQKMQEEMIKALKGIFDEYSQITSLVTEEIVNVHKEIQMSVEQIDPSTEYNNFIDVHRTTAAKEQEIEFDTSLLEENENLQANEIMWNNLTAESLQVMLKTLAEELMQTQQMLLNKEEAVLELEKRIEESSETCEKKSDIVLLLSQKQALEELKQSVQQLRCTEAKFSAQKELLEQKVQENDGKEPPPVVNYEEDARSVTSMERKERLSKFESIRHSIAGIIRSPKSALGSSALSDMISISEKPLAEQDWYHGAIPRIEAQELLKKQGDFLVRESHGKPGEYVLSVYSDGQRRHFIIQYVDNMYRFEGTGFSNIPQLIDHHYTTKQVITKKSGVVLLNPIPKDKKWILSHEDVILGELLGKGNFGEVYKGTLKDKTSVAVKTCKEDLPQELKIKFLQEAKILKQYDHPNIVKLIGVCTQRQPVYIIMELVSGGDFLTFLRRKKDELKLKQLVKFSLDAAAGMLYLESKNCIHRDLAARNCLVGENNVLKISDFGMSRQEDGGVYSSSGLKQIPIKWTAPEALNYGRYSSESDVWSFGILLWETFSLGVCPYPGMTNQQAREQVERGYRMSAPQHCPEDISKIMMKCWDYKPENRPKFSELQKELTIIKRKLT

[24] = biological target: T1, Transcriptional enhancer factor TEF-3; assay: Binding affinity to TEAD4 in human HCT116 cells assessed as increase in soluble form of TEAD4 level at 50 uM preincubated for 4 hrs followed by heating at 51.6 to 64.4 degC for 3 mins by immunoblot-based […]; assay type: cell-based

C=CS(=O)(=O)Nc1ccc(Cc2ccc3ccccc3c2)cc1 showed an inhibition [1] of 4%, an inhibition [2] of 1% and an inhibition [3] of 72.5%. For the same compound, the inhibition [4] was 3%, the inhibition [5] was 3% and the inhibition [6] was -6%. The ΔTm [7] was 1.2 °C, the inhibition [8] was 7% and the inhibition [9] was 3%. For the same compound, the inhibition [10] was 7%, the inhibition [11] was “inactive” and the inhibition (Homo sapiens [12]) was 1%. The inhibition [13] was -3%, the inhibition [14] was 5% and the inhibition [15] was 13%. The inhibition [16] was 8%, the ΔTm [17] was 7 to 7.2 °C and the inhibition [18] was 0%. The inhibition (Homo sapiens [19]) was -2%, the inhibition [20] was 2% and the ΔTm [21] was 7.3 °C. The inhibition (Homo sapiens [22]) was 4%, the inhibition [23] was 9% and the Activity [24] was “Active”.
